Assay results taken from patent publication US20250332154A1, “USE OF NAPHTHOQUINE PHOSPHATE IN PREPARATION OF A MEDICAMENT FOR TREATING AUTOIMMUNE DISEASES” (SHANGHAI PHARMACEUTICALS INDUSTRY CO., LTD, priority 2022, published 2025).
Structures can show the parent of a compound that is named as a salt.

Tests used:
[1] = Non-specific cytotoxicity assay (MTT), RAW264.7; format: cell-based, mouse; settings: mouse, RAW264.7 cells
Procedure: RAW264.7 cells were inoculated into a 96-well plate at 1×10^5/well and allowed to adhere to the wall for 6 hours in a 37° C., 5% CO2 incubator. […] A corresponding solvent control (cell control) and a culture medium background control (blank control) were set up. The cells were cultured in a 37° C., 5% CO2 incubator for 48 hours. Fifteen minutes before the end of the culture, 20 μl of 5 mg/ml MTT was added. At the end of the culture, the supernatant was aspirated and discarded, 200 μl DMSO was added to dissolve the crystals.

[2] = system: IL-1β; assay: IL-1β production by LPS-induced RAW264.7 cells (ELISA); format: cell-based, mouse; settings: for IC50: Mus musculus, LPS 10 μg/ml, RAW264.7, read-out: IB-1β IC50; for production of LPS-induced IL-1β: RAW264.7, in words
Procedure: RAW264.7 cells were inoculated into a 96-well plate at 1×10^5/well and allowed to adhere to the wall for 6 hours in a 37° C., 5% CO2 incubator. […] After the cells adhered to the wall, the stimulant LPS (final concentration: 10 μg/ml) and the gradient-diluted compounds were added. A corresponding stimulation control and a cell control (without stimulation) were set up. After the end of the culture, the cell culture supernatants were collected, and the levels of TNF-α, IL-1β and IL-6 were measured by ELISA.

[3] = system: IgG; assay: IgG secretion by TLRs-L-stimulated mouse whole spleen lymphocytes (ELISA); format: cell-based; settings: Lymphocyte, 120 h
Procedure: (§1) BALB/c mice were sacrificed by cervical dislocation, and spleens were aseptically excised to prepare whole spleen lymphocytes. The cells were adjusted to 5×10^6 cells/ml. Hydroxychloroquine sulfate was diluted with a 3-fold gradient into 3 concentrations starting from 30 μM: 30, 10 and 3 μM; naphthoquine phosphate was diluted with a 3-fold gradient into 3 concentrations starting from 10 μM: 10, 3 and 1 μM.
(§2) Mouse spleen lymphocytes were inoculated into a 96-well plate at 100 μl/well, and the stimulant TLR4-L (final concentration: 10 μg/ml), TLR7-L (final concentration: 5 μg/ml) or TLR9-L (final concentration: 1 μM) and the compounds diluted with the above concentration gradients were added. A corresponding stimulation control and a cell control (without stimulation) were set up. The cells were cultured in a 37° C., 5% CO2 incubator for 120 hours. After the end of the culture, the cell culture supernatants were collected, and the levels of IgG and IgM were measured by ELISA.

[4] = system: IL-6; assay: IL-6 secretion by TLRs-L-stimulated mouse whole spleen lymphocytes (ELISA); format: cell-based; settings: Lymphocyte, 48 h
Procedure: as §1
as §2, with “48” for “120”, “IL-1β, IL-6,” for “IgG”, “IL-10” for “IgM”

[5] = Non-specific cytotoxicity assay (MTT), purified mouse B cells; format: cell-based; settings: BALB/c
Procedure: (§3) BALB/c mice were sacrificed by cervical dislocation, and spleens were aseptically excised to prepare spleen lymphocytes. The cells were adjusted to 1×10^8 cells/ml, blocked with 2.4G2 (final concentration: 10 μg/ml) for 20 min, cultured with PE-CD19 (final concentration: 5 μg/ml) for 20 min, washed with MACS buffer, centrifuged at 4° C., 300G for 10 min, 100 μl anti-PE beads were added per 1×10^8 cells, incubated with 900 μl MACS buffer for 15 min, washed with MACS buffer, centrifuged at 4° C., 300G for 10 min. The supernatant was discarded. 500 μl MACS buffer was added per 1×10^8 cells to resuspend the cells. MACS column was used for separation. Magnetically labeled cells were retained on the column. The MACS column was removed from the magnetic field and then eluted.
Hydroxychloroquine sulfate was diluted with a 2-fold gradient into 3 concentrations starting from 8 μM: 8, 4 and 2 μM. Naphthoquine phosphate was diluted with a 2-fold gradient into 3 concentrations starting from 0.5 μM: 0.5, 0.25, 0.125 μM. Purified mouse B cells were inoculated into a 96-well plate at 1×10^6/well, and gradient diluted compounds were added. A corresponding blank control and a cell control were set up. The cells were cultured in a 37° C., 5% CO2 incubator for 48 hours. […] The absorbance value was measured at 570 nm with a microplate reader (Spectra Max 190, Molecular Devices).

[6] = system: IL-6; assay: IL-6 secretion by TLRs-L-stimulated purified mouse B cells (ELISA); format: cell-based; settings: B-cell, 48 h, stimulant TLR4-L 10 μg/ml
Procedure: as §3
A suspension of purified mouse B cells was inoculated into a 96-well plate at 4×10^5/well. Hydroxychloroquine sulfate was diluted with a 2-fold gradient into 3 concentrations starting from 8 μM: 8, 4 and 2 μM. Naphthoquine phosphate was diluted with a 2-fold gradient into 3 concentrations 0.5 μM.: 0.5, 0.25 and 0.125 μM. […] After the end of the culture, the cell culture supernatants were collected, and the levels of TNF-α, IL-1β, and IL-6 were measured by ELISA.

Row | IC50 [2] [µM] | IC50 ([3]; stimulant TLR4-L 10 μg/ml) [µM] | IC50 ([3]; stimulant TLR7-L 5 μg/ml) [µM] | IC50 ([3]; stimulant TLR9-L 1 μM) [µM] | IC50 ([4]; stimulant TLR4-L 10 μg/ml) [µM] | IC50 ([4]; stimulant TLR7-L 5 μg/ml) [µM] | IC50 ([4]; stimulant TLR9-L 1 μM) [µM] | IC50 [6] [µM] | SMILES | CC50 at 48 h [1] [µM] | production of LPS-induced IL-1β [2] | CC50 at 48 h [5] [µM]
1 | 3.5 | 18.2 | 26.9 | 5.63 | 15.3 | 1.91 | 3.92 | > 8 | CCN(CCO)CCCC(C)Nc1ccnc2cc(Cl)ccc12 (centres unmarked) [Hydroxychloroquine Sulfate, hydroxychloroquine sulfate] | 24.4 | significantly inhibited | 19.7
2 | 1.59 |  |  | 0.325 | 0.63 | 0.007 | 0.29 | 0.5 | CC(C)(C)NCc1cc(Nc2ccnc3cc(Cl)ccc23)c2c(c1O)CCCC2.O=P(O)(O)O.O=P(O)(O)O [Naphthoquine Phosphate, Naphthoquine phosphate] | 8.73 | significantly inhibited | 1.98
